From patent US20120009257A1 (priority 2009, published 2012)

What was measured:
[1] = Bioequivalence study of fixed combination versus free combination, plasma PK by LC/MS/MS; format: in vivo, healthy subjects
Method: Pharmacokinetic measurements were performed on blood collected from each subject. […] The PK parameters were determined in plasma, using non-compartmental methods.
AUC0-tlast: Area under the concentration-time curve from time zero to time tlast, where tlast is the last time point with measurable concentration (ng hr/ml).
AUC0-inf: Area under the plasma concentration-time curve from time zero to infinity (ng hr/ml).
Cmax: Maximum (peak) plasma concentration (ng/ml).
Tmax: Time to reach peak or maximum concentration (hr).
T1/2: Elimination half-life associated with the terminal slope (E) of a semilogarithmic concentration-time curve (hr).

[2] = drug substance; cited from earlier work

Row | intra-subject coefficient of variation (CV) for AUC0-inf ([1]; aliskiren) [%] | intra-subject coefficient of variation (CV) for AUC0-tlast ([1]; aliskiren) [%] | intra-subject coefficient of variation (CV) for Cmax ([1]; aliskiren) [%] | intra-subject CV for AUC0-inf ([1]; valsartan) [%] | intra-subject CV for AUC0-tlast ([1]; valsartan) [%] | intra-subject CV for Cmax ([1]; valsartan) [%] | Structure (SMILES) | hygroscopicity [2]
1 | 33.19 | 33.98 | 51.90 | – | – | – | COCCCOc1cc(C[C@@H](C[C@H](N)[C@@H](O)C[C@H](C(=O)NCC(C)(C)C(N)=O)C(C)C)C(C)C)ccc1OC [Aliskiren, 2(S),4(S),5(S),7(S)—N-(3-amino-2,2-dimethyl-3-oxopropyl)-2,7-di(1-methylethyl)-4-hydroxy-5-amino-8-[4-methoxy-3-(3-methoxy-propoxy)phenyl]-octanamide] | highly hygroscopic
2 | – | – | – | 28.33 | 28.56 | 40.37 | CCCCC(=O)N(Cc1ccc(-c2ccccc2-c2nnn[nH]2)cc1)[C@H](C(=O)O)C(C)C [Valsartan] | –
